Test results reported in US20260285876A1, “MACROCYCLIC COMPOUNDS AS USP1 INHIBITORS” (GUANGDONG NEWOPP BIOPHARMACEUTICALS CO., LTD., priority 2023, published 2026).

Molecular target: T1, USP1/UAF1 (Homo sapiens, UniProt O94782)
T1 construct: purchased R&D Systems
Assay: Deubiquitination assay for USP1/UAF1 (ubiquitin-rhodamine 110 substrate)
Assay type: biochemical
Settings: 0.5 nM USP1/UAF1, 150 nM ubiquitin-rhodamine, 50% inhibition compared to DMSO control
Experimental: Deubiquitination assay for USP1/UAF1: compounds described here were tested for their ability to inhibit USP1 deubiquitinase activity in this assay using ubiquitin-rhodamine 110 as the substrate. The assay was conducted in the assay buffer (50 mM Tris-HCl, pH 7.8, 0.5 mM EDTA, 0.1 mg/ml Bovine Serum Albumin, 1 mM DTT, 0.01% Tween-20) in 384 well plates. 0.5 nM USP1/UAF1 (R&D Systems) was incubated with compounds in dose response format for 10 minutes at room temperature. Then the reaction was initiated by addition of 150 nM ubiquitin-rhodamine (R&D Systems). The fluorescence intensity was read after 45 minutes at Ex488/Em535 by CLARIOstar (BMG Labtech). IC50 response curves were plotted.

T1 sequence (O94782 whole entry): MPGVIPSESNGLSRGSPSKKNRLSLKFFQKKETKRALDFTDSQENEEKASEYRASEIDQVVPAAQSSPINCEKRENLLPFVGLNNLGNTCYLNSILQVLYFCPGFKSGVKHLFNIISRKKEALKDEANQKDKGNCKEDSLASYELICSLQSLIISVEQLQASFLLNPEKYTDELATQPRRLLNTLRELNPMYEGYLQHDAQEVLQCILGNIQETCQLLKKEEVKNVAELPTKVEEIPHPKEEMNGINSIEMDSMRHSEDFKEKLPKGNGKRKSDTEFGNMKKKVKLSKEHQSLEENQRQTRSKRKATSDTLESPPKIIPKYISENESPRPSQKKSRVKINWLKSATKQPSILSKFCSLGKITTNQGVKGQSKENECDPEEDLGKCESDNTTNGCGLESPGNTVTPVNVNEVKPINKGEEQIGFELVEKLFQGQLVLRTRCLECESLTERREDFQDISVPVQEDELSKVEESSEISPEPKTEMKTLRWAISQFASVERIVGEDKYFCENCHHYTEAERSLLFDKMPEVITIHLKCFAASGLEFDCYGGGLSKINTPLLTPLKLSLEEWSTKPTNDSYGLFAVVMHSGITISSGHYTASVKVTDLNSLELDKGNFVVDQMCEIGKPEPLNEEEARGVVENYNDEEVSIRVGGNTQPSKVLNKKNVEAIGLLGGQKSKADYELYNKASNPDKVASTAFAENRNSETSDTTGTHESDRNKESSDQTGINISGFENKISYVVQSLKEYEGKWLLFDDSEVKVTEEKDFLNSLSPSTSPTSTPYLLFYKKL
T1 sequence (Q8TAF3 whole entry partner): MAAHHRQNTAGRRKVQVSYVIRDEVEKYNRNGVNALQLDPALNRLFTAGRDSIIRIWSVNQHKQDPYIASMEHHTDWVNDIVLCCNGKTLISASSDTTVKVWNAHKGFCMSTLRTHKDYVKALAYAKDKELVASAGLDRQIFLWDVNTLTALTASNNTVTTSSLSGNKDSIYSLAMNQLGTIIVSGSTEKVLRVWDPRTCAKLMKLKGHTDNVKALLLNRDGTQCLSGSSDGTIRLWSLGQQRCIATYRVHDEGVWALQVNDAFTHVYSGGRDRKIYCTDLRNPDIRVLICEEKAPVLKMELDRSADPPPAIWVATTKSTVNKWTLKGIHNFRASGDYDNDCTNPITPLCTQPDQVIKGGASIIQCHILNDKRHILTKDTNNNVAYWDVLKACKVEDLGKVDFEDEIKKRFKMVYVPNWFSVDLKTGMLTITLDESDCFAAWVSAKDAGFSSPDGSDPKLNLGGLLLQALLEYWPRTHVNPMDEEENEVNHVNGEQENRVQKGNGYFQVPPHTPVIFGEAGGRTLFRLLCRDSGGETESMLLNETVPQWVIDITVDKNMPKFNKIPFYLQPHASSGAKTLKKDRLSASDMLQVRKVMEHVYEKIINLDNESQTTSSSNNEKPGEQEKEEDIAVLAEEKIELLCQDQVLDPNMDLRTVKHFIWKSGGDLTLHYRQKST

SMILES	IC50 [nM]
FC(F)(F)c1cn(C2CC2)c(-c2ccc3cc2OCCCOc2ncnc(C4CC4)c2-c2ncc4ccc(n4n2)C3)n1 [Example 52, (Z)-1^6-cyclopropyl-4^4-(1-cyclopropyl-4-(trifluoromethyl)-1H-imidazol-2-yl)-5,9-dioxa-2(2,7)-pyrrolo[2,1-f][1,2,4]triazina-1(5,4)-pyrimidina-4(1,3)-benzenacyclononaphane]	≤ 100
CC(C)n1cc(C(F)(F)F)nc1-c1ccc2c(c1)/C=C/CCOc1ncnc(C3CC3)c1-c1ncc3cnn(c3n1)C2 [Example 55, (E)-16-cyclopropyl-44-(1-isopropyl-4-(trifluoromethyl)-1H-imidazol-2-yl)-21H-9-oxa-2(6,1)-pyrazolo[3,4-d]pyrimidina-1(5,4)-pyrimidina-4(1,2)-benzenacyclononaphan-5-ene4(1,2)-benzenacyclononaphane]	≤ 100
Cc1cc(C(F)(F)F)nn1-c1ccc2cc1OCCCOc1ncnc(C3CC3)c1-c1ncc3cnn(c3n1)C2 [Example 56, 1^6-cyclopropyl-4^4-(5-methyl-3-(trifluoromethyl)-1H-pyrazol-1-yl)-2^1H-5,9-dioxa-2(6,1)-pyrazolo[3,4-d]pyrimidina-1(5,4)-pyrimidina-4(1,3)-benzenacyclononaphane]	≤ 100

Further lines, results first:

IC50 [nM]	SMILES
≤ 100	FC(F)(F)c1cn(C2CC2)c(-c2ccc3c(c2)/C=C/CCOc2ncnc(C4CC4)c2-c2ncc4ccc(n4n2)C3)n1 [Example 51, (2^1Z,5E)-1^6-cyclopropyl-4^4-(1-cyclopropyl-4-(trifluoromethyl)-1H-imidazol-2-yl)-8-oxa-2(2,7)-pyrrolo[2,1-f][1,2,4]triazina-1(5,4)-pyrimidina-4(1,2)-benzenacyclooctaphan-5-ene]
≤ 100	CC(C)n1cc(C(F)(F)F)nc1-c1ccc2c(c1)C#CCOc1ncnc(C3CC3)c1-c1ncc3cnn(c3n1)C2 [Example 54, (E)-16-cyclopropyl-44-(1-isopropyl-4-(trifluoromethyl)-1H-imidazol-2-yl)-21H-9-oxa-2(6,1)-pyrazolo[3,4-d]pyrimidina-1(5,4)-pyrimidina-4(1,2)-benzenacyclononaphan-5-ene4(1,2 benzenacyclononaphane]
≤ 100	FC(F)(F)c1cn(C2CC2)c(-c2ccc3c(c2)/C=C/COc2ncnc(C4CC4)c2-c2ncc4cnn(c4n2)C3)n1 [Example 57]
